Test results from patent US20230095695A1, “RNAS FOR COMPLEMENT INHIBITION” (Apellis Pharmaceuticals, Inc., priority 2020, published 2023).
Oligonucleotides are written 5' to 3', each unit as a sugar letter and its base; * is a phosphorothioate linkage, no mark a phosphodiester; rarer units and linkages stand in square brackets, end groups in braces. Plain capitals give the bases only. Non-standard residues stand in square brackets, D forms with d. {GalNAc-NHC6} = GalNAc ligand attached through an NHC6 linker; Trp(6-F) = N[C@@H](Cc1c[nH]c2cc(F)ccc12)C(=O)O; m = 2'-O-methyl; f = 2'-fluoro

How the values were obtained:
complement activation = settings: relative to compstatin amidated at the C-terminus; based on published data; cited from earlier work
C3 protein [1] = assay: Serum C3 protein (ELISA) in non-human primates after single SC dose; assay type: in vivo, cynomolgus monkeys; settings: for reduction of serum C3 protein vs baseline: by day 29
Procedure: (§1) Naive male cynomolgus monkeys (n=3 in each group) were subcutaneously (SC) administered a single dose of either 3 mg/kg, 10 mg/kg, or 30 mg/kg siRNA 58, or vehicle (phosphate buffered saline) on day 1.
(§2) Serum samples were scheduled to be collected on days −5, −1, 3, 8, 15, 22, 29, 40, 57, 67, 82, 97, 112, 127, 142, 157, 172 and 184 (where negative values correspond to days before injection with siRNA 58 or vehicle). The level of C3 protein in serum was measured using an ELISA assay. Additionally, serum samples were also analyzed for alternative complement pathway activity (AH50). Values at day −1 value were used as the baseline.

C3 mRNA [2] = assay: Liver biopsy C3 mRNA (quantitative PCR) in non-human primates after single SC dose; assay type: in vivo, cynomolgus monkeys; settings: for reduction of liver C3 mRNA vs vehicle control: by day 15
Procedure: as §1
Liver needle biopsies were performed on days 15, 46 and 79. The level of C3 mRNA in the samples was measured using a quantitative PCR assay. C3 mRNA level was normalized to the level of ActB mRNA in these experiments.

[3] = system: alternative complement pathway; assay: Serum alternative complement pathway activity (AH50) in non-human primates; assay type: in vivo, cynomolgus monkeys
Procedure: as §1, §2

C3 protein [4] = assay: Plasma C3 protein (ELISA) in rats after SC administration; assay type: in vivo, Sprague-Dawley rats
Procedure: (§3) Dosing: Animals from groups 1-3 and 8 were dosed with a single subcutaneous injection of PBS vehicle or 3, 10 or 30 mg/kg siRNA 59, formulated at a concentration of 0.6, 2 and 6 mg/ml in PBS, respectively, in a dosing volume of 5 ml. Animals from groups 4-7 were dosed with 3× daily subcutaneous injection of […] siRNA 59, formulated at a concentration of 0.2, 0.6 and 2 mg/ml in PBS, respectively, in a dosing volume of 5 ml.
(§4) Sampling: For PD analyses, plasma and serum samples were collected at baseline and days 3, 8, 15, 22 and 29 post-dose. Plasma samples were collected at 15 minutes and 1, 4, 8, 24, 48 and 72 hours post-dose. Liver samples were collected at necropsy on days 3 and 30 post-dose.
Bioanalytical Methods: Plasma PD samples were analyzed for concentrations of C3 protein at Confluence Discovery Technologies (MO, USA) using a double antibody sandwich ELISA kit according to the manufacturer's instructions (Eagle Biosciences; plasma dilution of 1:10,000).

alternative pathway = assay: Serum alternative pathway complement activation (AP Wieslab assay, C5b-9) in rats; assay type: in vivo, Sprague-Dawley rats
Procedure: as §3, §4
Serum PD samples were analyzed for alternative pathway (AP) complement activation at Confluence Discovery Technologies (MO, USA) using the AP Wieslab assay (Eagle Biosciences, Cat #COMPL AP330).
Alternative pathway complement activity: Sera from each animal treated with single dose siRNA 59 and vehicle, as well as the multi-dose siRNA (−) control-treated animals, were used in the AP Wieslab assay, an ELISA-based assay that measures formation of C5b-9 following alternative pathway activation, to assess complement activation (FIG. 8). […] Data represents mean±SEM (n=3). Serum AP complement activity was highly variable across the control groups.

C3 mRNA [5] = assay: Liver C3 mRNA (RT-qPCR) in rats; assay type: in vivo, Sprague-Dawley rats; settings: for mean C3 expression in liver, % of gene expression in the vehicle treated arm: 30 mg/kg
Procedure: as §3, §4
PD tissue samples were analyzed for C3 mRNA levels using a semi-validated RT-qPCR method at EpigenDx (MA, USA).

[6] = Tolerability observations in rats; assay type: in vivo, Sprague-Dawley rats
Procedure: as §3

[7] = single SC dose 3, 10 or 30 mg/kg
[8] = SC 3, 10, 30 mg/kg, single or 3x daily

Ac-ICVWQDWGAHRCdT-COOH [AC-V4W/H9A/T13dT-OH]
Activity over compstatin (complement activation): 55× more

Ac-ICVYQDWGAHRCT-CONH2 [AC-V4Y/H9A]
Activity over compstatin (complement activation): 14× more

H-GICV(6fW)QD(6fW)GAHRCTN-COOH (H-GICV[Trp(6-F)]QD[Trp(6-F)]GAHRCTN-OH; not fully specified (bridges); cysteine pairing not given here) [+GA/4(6fW)/W7(6fW)H9A+N-OH]
Activity over compstatin (complement activation): 126× more

siRNA 58: siRNA 53 further modified; sense SEQ ID NO: 325 / antisense SEQ ID NO: 275; GalNAc conjugated via NHC6 linker at 5′ end of sense strand (sense {GalNAc-NHC6}-mC*mC*fAmAmCmUfAfCfAmUmGfAmAmCmCmUfA*mC*mA; antisense mU*fG*mUmAmGmGmUmUmCmAmUmGmUfAmGmUmUmGmG*mC*mU) [siRNA 53 further modified; GalNAc conjugated via NHC6 linker at 5′ end of sense strand]
reduction of serum C3 protein vs baseline (C3 protein [1]; single SC dose 3 mg/kg): 77%
reduction of serum C3 protein vs baseline (C3 protein [1]; single SC dose 10 mg/kg): 85%
reduction of serum C3 protein vs baseline (C3 protein [1]; single SC dose 30 mg/kg): 90%
duration of serum C3 protein reduction (C3 protein [1]; [7]): sustained out to day 67
reduction of liver C3 mRNA vs vehicle control (C3 mRNA [2]; single SC dose 3 mg/kg): 89%
reduction of liver C3 mRNA vs vehicle control (C3 mRNA [2]; single SC dose 10 mg/kg): 97%
reduction of liver C3 mRNA vs vehicle control (C3 mRNA [2]; single SC dose 30 mg/kg): 99%
duration of liver C3 mRNA reduction (C3 mRNA [2]; [7]): sustained at day 46
reduction of alternative complement pathway activity (AH50) vs baseline ([3]; single SC dose 3 mg/kg, by day 29): 65%
reduction of alternative complement pathway activity (AH50) vs baseline ([3]; single SC dose 3 mg/kg, day 67): 68%
reduction of alternative complement pathway activity (AH50) vs baseline ([3]; single SC dose 10 mg/kg, by day 29): 82%
reduction of alternative complement pathway activity (AH50) vs baseline ([3]; single SC dose 10 mg/kg, day 67): 91%
reduction of alternative complement pathway activity (AH50) vs baseline ([3]; single SC dose 30 mg/kg, by day 29): 92%
reduction of alternative complement pathway activity (AH50) vs baseline ([3]; single SC dose 30 mg/kg, day 67): 98%

siRNA 59: siRNA 33 further modified; sense SEQ ID NO: 326 / antisense SEQ ID NO: 260; GalNAc conjugated via NHC6 linker at 5′ end of sense strand (sense {GalNAc-NHC6}-mU*mC*fCmAmAmGfCfCfUmUmGfGmCmUmCmAfA*mU*mA; antisense mU*fA*mUmUmGmAmGmCmCmAmAmGmGfCmUmUmGmGmA*mA*mC) [siRNA 33 further modified; GalNAc conjugated via NHC6 linker at 5′ end of sense strand]
recovery of plasma C3 protein to baseline levels (C3 protein [4]; 3 mg/kg dose group, day 29): Full recovery
reduction in C3 plasma protein concentration (C3 protein [4]; 10 mg/kg dose): ~90%
plasma C3 concentration, single dose treatment vs QDx3 equivalent dose groups (C3 protein [4]; 3, 10, 30 mg/kg total dose): comparable
recovery of plasma C3 protein to baseline levels (C3 protein [4]; 10 and 30 mg/kg dose groups, final blood collection on day 29): did not appear to have fully recovered
change in plasma C3 concentration across the dose groups (C3 protein [4]; [8]): clear dose-dependent response
time at which maximal C3 protein reduction in plasma was achieved (C3 protein [4]; all dose groups): ≤ 8 study day
change in AP Wieslab activity (alternative pathway; dose groups other than high-dose (3 and 10 mg/kg)): No change
mean reduction in alternative pathway activity (alternative pathway; high dose group (30 mg/kg single SC), day 8 to day 15 post-dose): approximately 90%
mean C3 expression in liver, % of gene expression in the vehicle treated arm (C3 mRNA [5]; day 3): 3%
mean C3 expression in liver, % of gene expression in the vehicle treated arm (C3 mRNA [5]; day 30): 25%
recovery of liver C3 expression (C3 mRNA [5]; all treatment animals, study termination at day 30): None of the treatment animals had fully recovered
reduction in C3 mRNA in liver across doses (C3 mRNA [5]; both terminal timepoints (day 3 and day 30)): dose-dependent manner
level of liver C3 mRNA vs vehicle control (C3 mRNA [5]; single dose PK animal groups, 3 days following treatment): significantly reduced
tolerability of the doses used [6, 8]: well-tolerated
body weight following TA administration ([6]; all treatment groups): no loss in body weight
signs of distress or behavioral changes ([6]; all treatment groups): No signs of distress or behavioral changes
